Results reported in publication PMC11519575 (Nature Communications, 2024).

Tests used:
VanAB = molecular target: T1, VanAB (Pseudomonas putida, UniProt Q88GI6); assay: whole-cell consumption; assay type: cell-based; conditions: R. eutropha H16 expressing vanAB, sole carbon source, 30 °C
T1 sequence (Q88GI6 1-355): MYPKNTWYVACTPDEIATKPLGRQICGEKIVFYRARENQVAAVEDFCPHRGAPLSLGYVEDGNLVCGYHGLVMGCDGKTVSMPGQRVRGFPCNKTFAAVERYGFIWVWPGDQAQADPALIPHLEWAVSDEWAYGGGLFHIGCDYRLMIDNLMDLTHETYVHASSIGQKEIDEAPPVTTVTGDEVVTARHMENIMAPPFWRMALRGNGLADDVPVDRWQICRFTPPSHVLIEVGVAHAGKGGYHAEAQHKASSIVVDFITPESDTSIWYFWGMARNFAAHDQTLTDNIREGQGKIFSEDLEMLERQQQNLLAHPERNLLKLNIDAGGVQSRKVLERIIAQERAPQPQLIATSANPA
T1 sequence (Q88GI5 1-316 partner): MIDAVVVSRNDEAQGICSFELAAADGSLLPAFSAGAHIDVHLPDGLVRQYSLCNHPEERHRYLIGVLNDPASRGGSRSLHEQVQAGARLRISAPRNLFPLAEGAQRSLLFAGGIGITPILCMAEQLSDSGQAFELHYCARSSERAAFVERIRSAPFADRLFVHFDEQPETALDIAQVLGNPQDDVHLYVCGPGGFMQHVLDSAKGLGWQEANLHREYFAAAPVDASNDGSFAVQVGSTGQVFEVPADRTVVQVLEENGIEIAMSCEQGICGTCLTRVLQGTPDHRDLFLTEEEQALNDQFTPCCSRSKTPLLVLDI

LigM = LigM (Sphingobium sp. SYK-6, UniProt G2IQS7); assay: whole-cell consumption; assay type: cell-based; conditions: tetrahydrofolate cofactor; with ligH and metF in R. eutropha H16
LigM, sequence (G2IQS7 whole entry): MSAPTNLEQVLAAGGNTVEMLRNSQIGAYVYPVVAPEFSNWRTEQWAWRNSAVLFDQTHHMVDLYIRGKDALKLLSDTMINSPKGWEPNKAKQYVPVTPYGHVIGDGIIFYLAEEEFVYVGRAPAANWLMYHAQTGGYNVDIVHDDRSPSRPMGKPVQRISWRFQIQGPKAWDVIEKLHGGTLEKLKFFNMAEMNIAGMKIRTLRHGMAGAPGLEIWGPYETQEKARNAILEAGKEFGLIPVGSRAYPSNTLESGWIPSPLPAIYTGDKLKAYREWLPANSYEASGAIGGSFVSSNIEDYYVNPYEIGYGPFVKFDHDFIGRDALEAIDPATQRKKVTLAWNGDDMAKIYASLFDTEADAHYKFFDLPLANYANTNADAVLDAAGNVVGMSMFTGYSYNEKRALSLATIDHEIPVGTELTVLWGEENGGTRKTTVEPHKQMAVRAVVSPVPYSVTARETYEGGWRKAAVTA

In the case of `COc1cc(C(=O)O)ccc1O` [vanillic acid], the “whole-cell consumption (HPLC) and growth” value (VanAB) is reported as “expression of vanAB could enable the strain to use vanillic acid” and the “whole-cell consumption (HPLC) and growth” value (LigM) is reported as “the demethylation process of the optimized LigM system is still the main rate-limiting step”.
